Experimental data reported in patent publication US5160526A, “Alkene stabilizers for 3-isothiazolone compounds” (priority 1991, dated 1992).
Read-outs that look alike come from different tables or passages of the source.

Key:
[1] = assay type: physicochemical; conditions: DPG, 55° C
Protocol: This solution was distributed into 6 vials (3 g each) and varying amounts of cyclohexene were added. The vials were then heated at 55° C. and analyzed periodically.

[2] = 2-propanol + 2% water, 55° C
Protocol: A solution of 5-chloro-2methyl-3-isothiazolone ("5-Chloro") and 2-methyl-3-isothiazolone ("2-Methyl") (3.11 g) was prepared in 2-propanol (12.1 g). This solution was distributed in 6 vials. Water (2%) and varying amounts of norbornene were then added. These were then put in a 55° C. oven and analyzed periodically.

[3] = assay type: physicochemical; conditions: 2-propanol, 55° C
Protocol: Varying amounts of DHP were added and the vials put in a 55° C. oven. Active ingredient analysis was done periodically.

[4] = Stabilization of 5-Chloro and 2-Methyl mixture by norbornene in dipropylene glycol containing 0.5% water, 55° C oven; assay type: physicochemical; conditions: DPG (0.5% water)
Protocol: To 19.9 g of dipropylene glycol was added 0.1 g of water. […] This solution was distributed into 6 vials and varying amounts of norbornene were added.

[5] = Stabilization of 5-Chloro and 2-Methyl mixture by norbornene in 2-propanol, 55° C oven; assay type: physicochemical; conditions: 2-propanol, 55° C
Excerpt: This solution was distributed into 6 vials and varying amounts of norbornene added.

## Cn1sccc1=O [2-methyl-3-isothiazolone]
[1]; 0% cyclohexene, 0 days
  2-Methyl (%) / 5-Chloro (%): 5.0%
[1]; 0% cyclohexene, 13 days
  2-Methyl (%) / 5-Chloro (%): 0.49%
[1]; 3.2% cyclohexene, 0 days
  2-Methyl (%) / 5-Chloro (%): 4.7%
[1]; 3.2% cyclohexene, 13 days
  2-Methyl (%) / 5-Chloro (%): 0.35%
[1]; 6.8% cyclohexene, 0 days
  2-Methyl (%) / 5-Chloro (%): 4.6%
[1]; 6.8% cyclohexene, 13 days
  2-Methyl (%) / 5-Chloro (%): 0.23%
[1]; 9.1% cyclohexene, 0 days
  2-Methyl (%) / 5-Chloro (%): 4.5%
[1]; 9.1% cyclohexene, 13 days
  2-Methyl (%) / 5-Chloro (%): 0.95%
[1]; 9.1% cyclohexene, 30 days
  2-Methyl (%) / 5-Chloro (%): 0.66%
[1]; 11.8% cyclohexene, 0 days
  2-Methyl (%) / 5-Chloro (%): 4.4%
[1]; 11.8% cyclohexene, 13 days
  2-Methyl (%) / 5-Chloro (%): 0.59%
[1]; 11.8% cyclohexene, 30 days
  2-Methyl (%) / 5-Chloro (%): 0.62%
[1]; 16.7% cyclohexene, 0 days
  2-Methyl (%) / 5-Chloro (%): 4.3%
[1]; 16.7% cyclohexene, 13 days
  2-Methyl (%) / 5-Chloro (%): 2.6%
[1]; 16.7% cyclohexene, 30 days
  2-Methyl (%) / 5-Chloro (%): 0.46%
[2]; 0% norbornene, 0 days
  2-Methyl (%) / 5-Chloro (%): 1.7%
[2]; 0% norbornene, 7 days
  2-Methyl (%) / 5-Chloro (%): 0.22%
[2]; 1.2% norbornene, 0 days
  2-Methyl (%) / 5-Chloro (%): 2.3%
[2]; 1.2% norbornene, 7 days
  2-Methyl (%) / 5-Chloro (%): 0.14%
[2]; 2.3% norbornene, 0 days
  2-Methyl (%) / 5-Chloro (%): 2.3%
[2]; 2.3% norbornene, 7 days
  2-Methyl (%) / 5-Chloro (%): 0.08%
[2]; 4.2% norbornene, 0 days
  2-Methyl (%) / 5-Chloro (%): 2.2%
[2]; 4.2% norbornene, 7 days
  2-Methyl (%) / 5-Chloro (%): 0.10%
[2]; 8.1% norbornene, 0 days
  2-Methyl (%) / 5-Chloro (%): 2.2%
[2]; 8.1% norbornene, 7 days
  2-Methyl (%) / 5-Chloro (%): 0.10%
[2]; 14.1% norbornene, 0 days
  2-Methyl (%) / 5-Chloro (%): 2.0%
[2]; 14.1% norbornene, 7 days
  2-Methyl (%) / 5-Chloro (%): 0.97%
[2]; 14.1% norbornene, 21 days
  2-Methyl (%) / 5-Chloro (%): 0.1%
[3]; 0% DHP, 0 days
  2-Methyl (%) / 5-Chloro (%): 5.3%
[3]; 0% DHP, 12 days
  2-Methyl (%) / 5-Chloro (%): 0.4%
[3]; 3.5% DHP, 0 days
  2-Methyl (%) / 5-Chloro (%): 5.1%
[3]; 3.5% DHP, 12 days
  2-Methyl (%) / 5-Chloro (%): 0.7%
[3]; 6.3% DHP, 0 days
  2-Methyl (%) / 5-Chloro (%): 5.0%
[3]; 6.3% DHP, 12 days
  2-Methyl (%) / 5-Chloro (%): 0.6%
[3]; 11.8% DHP, 0 days
  2-Methyl (%) / 5-Chloro (%): 4.2%
[3]; 11.8% DHP, 12 days
  2-Methyl (%) / 5-Chloro (%): 0.7%
[3]; 16.7% DHP, 0 days
  2-Methyl (%) / 5-Chloro (%): 4.4%
[3]; 16.7% DHP, 12 days
  2-Methyl (%) / 5-Chloro (%): 0.7%
[3]; 21.1% DHP, 0 days
  2-Methyl (%) / 5-Chloro (%): 4.2%
[3]; 21.1% DHP, 12 days
  2-Methyl (%) / 5-Chloro (%): 0.6%
[4]; 0% norbornene, 0 days
  2-Methyl (%) / 5-Chloro (%): 4.5%
[4]; 0% norbornene, 14 days
  2-Methyl (%) / 5-Chloro (%): 0.6%
[4]; 1.6% norbornene, 0 days
  2-Methyl (%) / 5-Chloro (%): 4.4%
[4]; 1.6% norbornene, 14 days
  2-Methyl (%) / 5-Chloro (%): 0.18%
[4]; 3.2% norbornene, 0 days
  2-Methyl (%) / 5-Chloro (%): 4.3%
[4]; 3.2% norbornene, 14 days
  2-Methyl (%) / 5-Chloro (%): 3.3%
[4]; 3.2% norbornene, 30 days
  2-Methyl (%) / 5-Chloro (%): 0.6%
[4]; 6.5% norbornene, 0 days
  2-Methyl (%) / 5-Chloro (%): 4.2%
[4]; 6.5% norbornene, 14 days
  2-Methyl (%) / 5-Chloro (%): 3.7%
[4]; 6.5% norbornene, 30 days
  2-Methyl (%) / 5-Chloro (%): 2.7%
[4]; 9.0% norbornene, 0 days
  2-Methyl (%) / 5-Chloro (%): 4.1%
[4]; 9.0% norbornene, 14 days
  2-Methyl (%) / 5-Chloro (%): 3.7%
[4]; 9.0% norbornene, 30 days
  2-Methyl (%) / 5-Chloro (%): 3.3%
[4]; 14.3% norbornene, 0 days
  2-Methyl (%) / 5-Chloro (%): 4.4%
[4]; 14.3% norbornene, 14 days
  2-Methyl (%) / 5-Chloro (%): 3.6%
[4]; 14.3% norbornene, 30 days
  2-Methyl (%) / 5-Chloro (%): 3.3%
[5]; 0% norbornene, 0 days
  % Remaining After X Days: 4.9%
[5]; 0% norbornene, 2 days
  % Remaining After X Days: 0.4%
[5]; 0% norbornene, 30 days
  % Remaining After X Days: 0.7%
[5]
  stabilization with norbornene (in words): completely stabilized
[5]; 3% norbornene, 0 days
  % Remaining After X Days: 4.7%
[5]; 3% norbornene, 2 days
  % Remaining After X Days: 4.4%
[5]; 3% norbornene, 30 days
  % Remaining After X Days: 3.9%
[5]; 6.3% norbornene, 0 days
  % Remaining After X Days: 4.5%
[5]; 6.3% norbornene, 2 days
  % Remaining After X Days: 4.3%
[5]; 6.3% norbornene, 30 days
  % Remaining After X Days: 4.0%
[5]; 11.8% norbornene, 0 days
  % Remaining After X Days: 4.2%
[5]; 11.8% norbornene, 2 days
  % Remaining After X Days: 4.0%
[5]; 11.8% norbornene, 30 days
  % Remaining After X Days: 3.9%
[5]; 16.7% norbornene, 0 days
  % Remaining After X Days: 4.0%
[5]; 16.7% norbornene, 2 days
  % Remaining After X Days: 3.9%
[5]; 16.7% norbornene, 30 days
  % Remaining After X Days: 3.7%
[5]; 21.0% norbornene, 0 days
  % Remaining After X Days: 3.9%
[5]; 21.0% norbornene, 2 days
  % Remaining After X Days: 3.8%
[5]; 21.0% norbornene, 30 days
  % Remaining After X Days: 3.7%
